From ChEMBL document CHEMBL4118279, “1,3-Di(quinolin-2-yl)guanidine binds to GGCCCC hexanucleotide repeat DNA in C9ORF72” (Bioorg Med Chem Lett, 2018)
Blank lines part the entries; values can stand above or below the compound they belong to. Activity calls are given as the source filed them. The calls are words filed in the database; no cut-off is given here.

How the values were obtained:
[1] = Binding affinity to GGCCCC/GGCCCC motif-containing duplex DNA (unknown origin) assessed as formation of CD bands at 20 uM at 310 to 345 nm by CD spectrometry
[2] = Binding affinity to GGCCCC/GGCCCC motif-containing duplex DNA (unknown origin) assessed as change in melting temperature at 20 uM by UV-spectrophotometric method
[3] = Binding affinity to GGGGCC/GGGGCC motif-containing duplex DNA (unknown origin) assessed as change in melting temperature at 20 uM by UV-spectrophotometric method
[4] = Binding affinity to GGAACC/GGAACC motif-containing duplex DNA (unknown origin) assessed as change in melting temperature at 20 uM by UV-spectrophotometric method
[5] = Binding affinity to GGTTCC/GGTTCC motif-containing duplex DNA (unknown origin) assessed as change in melting temperature at 20 uM by UV-spectrophotometric method
[6] = Binding affinity to GGCCCC/GGGGCC motif-containing duplex DNA (unknown origin) assessed as change in melting temperature at 20 uM by UV-spectrophotometric method
[7] = Binding affinity to GGCTCC/GGCCCC motif-containing duplex DNA (unknown origin) assessed as formation of CD bands at 20 uM at 310 to 345 nm by CD spectrometry
[8] = Binding affinity to GGCCCC/GGGGCC motif-containing duplex DNA (unknown origin) at 40 uM by ESI-TOF-MS analysis
[9] = Binding affinity to GGTTCC/GGCCCC motif-containing duplex DNA (unknown origin) assessed as change in melting temperature at 20 uM by UV-spectrophotometric method
[10] = Binding affinity to GGCTCC/GGCTCC motif-containing duplex DNA (unknown origin) assessed as change in melting temperature at 20 uM by UV-spectrophotometric method
[11] = Binding affinity to GGCCC/GGCCC motif-containing duplex DNA (unknown origin) assessed as change in melting temperature at 20 uM by UV-spectrophotometric method
[12] = Binding affinity to GGTCCC/GGTCCC motif-containing duplex DNA (unknown origin) assessed as formation of CD bands at 20 uM at 310 to 345 nm by CD spectrometry
[13] = Binding affinity to GGTCCC/GGTCCC motif-containing duplex DNA (unknown origin) assessed as change in melting temperature at 20 uM by UV-spectrophotometric method
[14] = Binding affinity to GGTCCC/GGCCCC motif-containing duplex DNA (unknown origin) assessed as change in melting temperature at 20 uM by UV-spectrophotometric method
[15] = Binding affinity to GGCTCC/GGCCCC motif-containing duplex DNA (unknown origin) assessed as change in melting temperature at 20 uM by UV-spectrophotometric method
[16] = Binding affinity to (GGCCCC)9 motif-containing duplex DNA (unknown origin) assessed as melting temperature at 20 uM by UV-spectrophotometric method
[17] = Binding affinity to (GGCCCC)9 motif-containing duplex DNA (unknown origin) assessed as formation of CD bands at 20 uM at 245 to 282 nm by CD spectrometry
[18] = Binding affinity to GGCCCC/GGCCCC motif-containing duplex DNA (unknown origin) at 80 uM by ESI-TOF-MS analysis
[19] = Binding affinity to GGTCCC/GGCTCC motif-containing duplex DNA (unknown origin) assessed as change in melting temperature at 20 uM by UV-spectrophotometric method
[20] = Binding affinity to GGTCCC/GGCCCC motif-containing duplex DNA (unknown origin) assessed as formation of CD bands at 20 uM at 300 to 345 nm by CD spectrometry
[21] = Binding affinity to (GGCCCC)5 motif-containing duplex DNA (unknown origin) at 80 uM by ESI-TOF-MS analysis
[22] = Binding affinity to GGCCCC/GGCCCC motif-containing duplex DNA (unknown origin) at 40 uM by ESI-TOF-MS analysis

Activity [1]: Active
ΔTm [2]: 3.4 °C
ΔTm [3]: -0.7 °C
ΔTm [4]: -0.5 °C
ΔTm [5]: -1.3 °C
ΔTm [6]: -2.8 °C
SMILES: N=C(N)Nc1ccc2ccccc2n1

Activity [1]: Active
Activity [7]: inactive
Activity [8]: inactive
ΔTm [2]: 19.6 °C
ΔTm [9]: 8.6 °C
ΔTm [10]: 8.3 °C
ΔTm [11]: 7.8 °C
ΔTm [3]: 0.7 °C
ΔTm [4]: 2.1 °C
Activity [12]: inactive
ΔTm [5]: -0.1 °C
ΔTm [13]: 11.5 °C
ΔTm [14]: 14.4 °C
ΔTm [15]: 11.2 °C
Tm [16]: 67.8 °C
Activity [17]: Active
Activity [18]: Active
ΔTm [6]: -1 °C
ΔTm [19]: 8.9 °C
Activity [20]: Active
Activity [21]: Active
Activity [22]: Active
SMILES: N=C(Nc1ccc2ccccc2n1)Nc1ccc2ccccc2n1
